Results from patent publication US4877774A, “Administration of steroid hormones” (The United States of America as represented by the …, priority 1987, dated 1989).
In brackets after ≈: the same amount, converted by molar mass. Several values for one entry are separate records, joined by “and”; a condition that tells them apart may be missing. Equal values may be shown once.

How the values were obtained:
[1] = human trial; cited from earlier work
amylases of human saliva = details: cited from earlier work
physchem [2] = assay: physchem
Protocol: The appropriate proportions in the mixture can be determined by examining the descending curvature of the Bs-type phase solubility of FIG. 1.
The appropriate mixture was determined by examining the descending curvature of the Bs-type phase solubility diagram, as shown in FIG. 1. […] The complex, which precipitated as a microcrystalline powder, was removed by filtration and dried under vacuum at room temperature for 24 hours.

physchem [3] = details: water
Protocol: The dissolution rates of testosterone alone or its release from complexes of interest were measured and compared with published data.

SMILES: OC[C@H]1O[C@@H]2O[C@H]3[C@H](O)[C@@H](O)[C@@H](O[C@H]4[C@H](O)[C@@H](O)[C@@H](O[C@H]5[C@H](O)[C@@H](O)[C@@H](O[C@H]6[C@H](O)[C@@H](O)[C@@H](O[C@H]7[C@H](O)[C@@H](O)[C@@H](O[C@H]8[C@H](O)[C@@H](O)[C@@H](O[C@H]1[C@H](O)[C@H]2O)O[C@@H]8CO)O[C@@H]7CO)O[C@@H]6CO)O[C@@H]5CO)O[C@@H]4CO)O[C@@H]3CO [beta-cyclodextrin]
- administration of testosterone, estradiol, or progesterone [1]: marginal

SMILES: OC[C@H]1O[C@@H]2O[C@H]3[C@H](O)[C@@H](O)[C@@H](O[C@H]4[C@H](O)[C@@H](O)[C@@H](O[C@H]5[C@H](O)[C@@H](O)[C@@H](O[C@H]6[C@H](O)[C@@H](O)[C@@H](O[C@H]7[C@H](O)[C@@H](O)[C@@H](O[C@H]8[C@H](O)[C@@H](O)[C@@H](O[C@H]9[C@H](O)[C@@H](O)[C@@H](O[C@H]1[C@H](O)[C@H]2O)O[C@@H]9CO)O[C@@H]8CO)O[C@@H]7CO)O[C@@H]6CO)O[C@@H]5CO)O[C@@H]4CO)O[C@@H]3CO [gamma-cyclodextrin]
- susceptibility to the amylases of human saliva (amylases of human saliva): susceptible
- solubility (physchem [2]; water): 168 mM (≈ 218 mg/mL)

SMILES: C[C@]12CC[C@H]3[C@@H](CCC4=CC(=O)CC[C@@]43C)[C@@H]1CC[C@@H]2O [testosterone]
- solubility (physchem [3]): 37 µg/mL (≈ 128 µM)
- solubility (physchem [2]; concentration of testosterone in water (without cyclodextrin), 25° C.): 130 µM and 37 µg/mL
- solubility (physchem [2]; gamma-cyclodextrin, limit value of testosterone concentration, with gamma-cyclodextrin, 25° C.): 1210 µM and 350 µg/mL
- solubility (physchem [2]; gamma-cyclodextrin, maximal solubilization of testosterone, with gamma-cyclodextrin, 25° C.): 8700 µM and 2500 µg/mL
